Reference: patent US20080038429A1, “Taste Improving Substances” (QUEST INTERNATIONAL SERVICES B,V,, priority 2004, published 2008)

Assays:
[1] = Sensory panel evaluation of tomato soups with reduced salt (Example 9)
Protocol: 10 gram of each composition was mixed with 100 ml hot water to obtain tomato soups. The different soups were tasted and evaluated by a sensory panel.

[2] = Professional panel evaluation of cigarettes with tobacco casings (Example 12); conditions: casing B (2 g per 100 g casing mixture, 1 g/kg tobacco) versus casing A without
Protocol: The following mixtures were used as casings to improve the tobacco taste and improvement of the body of the smoke:
dosage of this mixture is 1 g/kg tobacco
Cigarettes were prepared from both types of tobacco, which were evaluated by a professional panel.

[3] = Professional panel tasting of still lemon beverages (Example 7); conditions: sample C: tap water with sucrose (6.2 brix)+lemon flavour+30 ppm; B (6.2 brix, without): empty, less sweet; A (7 brix): sweet
Protocol: Three still beverages were prepared: • A: Tap water with sucrose (7 brix) and 1.5 g/l of citric acid+lemon flavour • B: Tap water with sucrose (6.2 brix) and 1.5 g/l of citric acid+lemon flavour • C: Tap water with sucrose (6.2 brix)+lemon flavour+N-gluconyl ethanolamine 30 ppm (as prepared in Example 2)
The beverages were tasted by a professional panel.

[4] = Professional panel tasting of 3% fat strawberry yoghurt (Example 5); conditions: sample B: Yoghurt 3% fat+strawberry flavour+4% sugar+10 ppm; reference A without: tart, acidic
Protocol: Two yoghurt samples were prepared: • A: Yoghurt 3% fat+strawberry flavour+4% sugar • B: Yoghurt 3% fat+strawberry flavour+4% sugar+10 ppm N-gluconyl ethanolamine (as prepared in Example 2)
(§1) The yoghurts were tasted by a professional panel.

[5] = Professional panel tasting of strawberry ice cream, 8% vegetable fat (Example 6); conditions: sample B: Ice cream (8% vegetable fat)+strawberry flavour+10 ppm, reference A without: sweet, creamy aftertaste
Protocol: Two ice cream (8% vegetable fat) samples were prepared: • A: Ice cream+strawberry flavour • B: Ice cream+strawberry flavour+10 ppm N-gluconyl ethanolamine (as prepared in Example 2)
The ice creams were tasted by a professional panel. There was general agreement among the group on the taste descriptions: • A: sweet, strawberry, creamy aftertaste.

[6] = Professional panel tasting of vinaigrette (Example 15); conditions: 30 ppm, original: strongly acidic, acetic acid-like, thin, peaky
Protocol: A vinaigrette was prepared using 815.8 g of water, 100 g of sunflower oil, 12 g of salt, 30 g of sugar, 45 g of vinegar (12% acetic acid), 4 g of xanthan gum and 0.2 g of turmeric powder by mixing all ingredients intensively to obtain a homogeneous emulsion.
To a part of the vinaigrette 30 ppm of N-gluconyl ethanolamine (as prepared in example 2) was added.
Both vinaigrettes were tasted by a professional panel.
The original vinaigrette was described as strongly acidic, acetic acid-like, thin, peaky.

[7] = Professional panel tasting of 0% fat strawberry yoghurt (Example 4)
Protocol: Four yoghurt samples were prepared: • A: Yoghurt 0% fat+strawberry flavour+sucralose (25%) 300 ppm • B: Yoghurt 0% fat+strawberry flavour+sucralose (25%) 300 ppm+10 ppm N-gluconyl ethanolamme (as prepared in Example 2) • C: Yoghurt 0% fat+strawberry flavour+4% sugar • D: Yoghurt 0% fat+strawberry flavour+4% sugar+10 ppm N-gluconyl ethanolamine (as prepared in Example 2)
as §1

[8] = Professional panel tasting of instant vegetable soup of different fat content (Example 11)
Protocol: Four samples of standard instant vegetable soup were prepared:
1. Soup containing 2% fat
2. Soup containing 2% fat+7 ppm gluconyl ethanolamine (as prepared in example 2)
3. Soup containing 4% fat
4. Soup containing 4% fat+7 ppm gluconyl ethanolamine (as prepared in example 2)
5. Soup containing 6% fat
6. Soup containing 6% fat+7 ppm gluconyl ethanolamine (as prepared in example 2)
(§2) All samples were tasted by a professional panel. There was general agreement about the differences in taste between the samples.

[9] = Professional panel tasting of salted potato chips (Example 13); conditions: potato chips with salt (0.7%) and 100 ppm; reference chips: salty, slightly rancid, oily-greasy and cardboard-like
From the text: One sample of potato chips was seasoned with salt (0.7%).
Another sample of potato chips was seasoned with salt (0.7%) and flavoured with 100 ppm
N-gluconyl ethanolamine (as prepared in example 2).
The chips were tasted by a professional panel.
The reference chips were described as salty, slightly rancid, oily-greasy and cardboard-like.

[10] = Professional panel tasting of ketchup (Example 14); conditions: ketchup pH 3.5, 20 ppm; base: strongly acidic, acetic acid-like, flat tomato profile
Protocol: Ketchup was prepared using 506 g of water, 150 g of tomato puree (28-30 Brix), 30 g of modified starch (Colflo 67 ex National Starch), 22 g of salt, 2 g of stabilizer Deltagel CE 1364) and 115 g of vinegar (12% acetic acid in water), by first mixing the dry ingredients, subsequently adding water and stirring until a homogeneous paste was obtained. Tomato puree and vinegar were than added and the mixture was stirred again and heated to a temperature of 95° C. for 1 minute. The mixture was filled off hot and allowed to cool down.
The pH was determined to be 3.5.
Part of the ketchup was mixed with 20 ppm N-gluconyl ethanolamine (as prepared in example 2).
The two ketchups were tasted and compared by a professional panel.
The ketchup base was described as strongly acidic, acetic acid-like, with a flat tomato profile.

[11] = Professional panel tasting of sweet strawberry milk samples of different fat content (Example 10); conditions: for taste description versus same milk without the substance: 6% sucrose, strawberry flavour, 10 ppm
Protocol: Six sweet milk samples, containing 6% sucrose, flavoured with a strawberry flavour were prepared:
1. Zero fat containing milk drink
2. Zero fat containing milk drink+10 ppm gluconyl ethanolamine (as prepared in example 2)
4. 1.5% fat milk+10 ppm gluconyl ethanolamine (as prepared in example 2)
6. Full fat milk+10 ppm gluconyl ethanolamine (as prepared in example 2)
as §2

[12] = Professional panel tasting of standard chicken soup (Example 8); conditions: 7 ppm, versus soup without
Protocol: A standard chicken soup was prepared. The quantity was split in two and to one half 7 ppm of N-gluconyl ethanolamine, as prepared in example 2, was added. The soups were tasted by a professional panel.

O=C(NCCOP(=O)(O)O)[C@H](O)[C@@H](O)[C@H](O)[C@H](O)CO [N-gluconyl ethanolamine phosphate]
perceived saltiness ([1]; product C (3.5 g salt, 3.5 g Example 3 product per 100 g) versus product A (control, 7 g salt)): comparable to that of product A | panel preference ([1]; product C: tomato soup powder, 50% reduced salt, 3.5 g of Example 3 product per 100 g, 10 g in 100 ml hot water, versus product B (maltodextrin instead)): clearly preferred over product B | taste description ([1]; product C: tomato soup, 50% reduced salt, 3.5 g Example 3 product per 100 g powder): “more taste”, “more impact”, “more umami”, “more kokumi” and “salivating”

O=C(NCCO)[C@H](O)[C@@H](O)[C@H](O)[C@H](O)CO [N-gluconyl ethanolamine]
smoke evaluation of cigarettes [2]: significantly more “body” in the smoke and significantly more “expanding” tobacco smoke | taste description [3]: fuller, more round and natural taste, more intense sweet taste than B | taste description [4]: much fuller, more fatty, more round and natural taste, more intense sweet | taste description [5]: fuller, more round and natural taste, enhanced sweetness and creaminess | taste description [6]: acidic, more rounded, more full, more fat impression, more smooth | taste description ([7]; sample B: Yoghurt 0% fat+strawberry flavour+sucralose (25%) 300 ppm+10 ppm, reference A without: sweet, bitter, metallic, aftertaste): fuller more round and natural taste, more sugar sweetness, significantly less bitter metallic aftertaste | taste description ([7]; sample D: Yoghurt 0% fat+strawberry flavour+4% sugar+10 ppm, reference C without: tart, acidic): fuller more round and natural taste, more intense sweet | taste comparison with higher-fat soup without the substance ([8]; sample 2 (2% fat+7 ppm) versus sample 3 (4% fat)): quite similar and the main difference was that sample 2 and 4 tasted slightly more sweet | taste description versus same soup without the substance ([8]; sample 2: vegetable soup 2% fat+7 ppm, versus sample 1): more fatty, more natural, more round and more sweet | taste comparison with higher-fat soup without the substance ([8]; sample 4 (4% fat+7 ppm) versus sample 5 (6% fat)): quite similar and the main difference was that sample 2 and 4 tasted slightly more sweet | taste description versus same soup without the substance ([8]; sample 4: vegetable soup 4% fat+7 ppm, versus sample 3): more fatty, more natural, more round and more sweet | taste description versus same soup without the substance ([8]; sample 6: vegetable soup 6% fat+7 ppm, versus sample 5): more fatty, more natural, more round and more sweet | taste description [9]: salty, exhibiting more fatty fullness, and masking of undesired notes of the reference chips | taste description [10]: mildly acidic, less acetic acid-like, exhibiting more sun-ripened tomato character, more fullness | taste comparison with higher-fat milk without the substance ([11]; sample 2 (zero fat+10 ppm) versus sample 3 (1.5% fat milk)): quite similar and the main difference was that sample 2 and 4 were slightly more sweet | taste description versus same milk without the substance ([11]; sample 2: zero fat milk drink, versus sample 1): fuller, more round natural taste, more creamy and more sweet | taste comparison with higher-fat milk without the substance ([11]; sample 4 (1.5% fat+10 ppm) versus sample 5 (full fat milk)): quite similar and the main difference was that sample 2 and 4 were slightly more sweet | taste description versus same milk without the substance ([11]; sample 4: 1.5% fat milk, versus sample 3): fuller, more round natural taste, more creamy and more sweet | taste description versus same milk without the substance ([11]; sample 6: full fat milk, versus sample 5): fuller, more round natural taste, more creamy and more sweet | taste description [12]: more tasteful, more complete, more body, more fatty
